From publication PMC4965148 (PLoS ONE, 2016)
Values joined by “and” are separate entries in the source; they are usually repeats but may differ in a detail not shown here. Identical values can stand only once. Like-named read-outs stand apart in the source and are kept apart here.

What was measured:
Dopamine D2 = Dopamine D2 (Homo sapiens, UniProt P14416); assay: Selectivity panel, binding
α7 nAChR = molecular target: T1, α7 nAChR (Rattus norvegicus, UniProt Q05941); assay: Ex vivo α7 nAChR occupancy ([3H]-A-585539); assay type: in vivo; details: for receptor occupancy at 10 mg/kg: rat
T1 construct: One forebrain hemisphere from each animal was thawed and homogenized in assay buffer; from tissue; host or cells: forebrain homogenate of dosed male Sprague Dawley rats

MAO-A = MAO-A (Homo sapiens, UniProt P21397); assay: Selectivity panel, enzyme; assay type: biochemical
NMDA NR1/2A = NMDA NR1/2A (Homo sapiens, UniProt Q05586+Q12879); assay: Selectivity panel, functional; assay type: cell-based
[1] = molecular target: T2, HEK293/human α7 nAChR cells (Homo sapiens, UniProt P36544); assay: Whole cell voltage clamp electrophysiology; assay type: cell-based; details: for Net Charge (Current Area) normalized to 300 µM ACh / Peak Current normalized to 3 mM ACh: individual cells
T2 construct: expressed in transfected cells
Method: (§1) Whole-cell voltage clamp studies were conducted on HEK293/rat α7 or HEK293/human α7 nAChR cells. […] Atropine (1 μM) was included in the bathing solution. […] Cells were voltage clamped at a holding potential of -90 mV. Using the Dynaflow microfluidic perfusion system (Cellectricon; flow 26 μl/min) responses to a 300 ms application of ACh or α7 nAChR agonists were measured. Currents were filtered at 2 kHz and sampled at 10 kHz using an EPC-9 amplifier and HEKA Pulse/Patchmaster software. […] The peak current amplitude and net charge crossing the membrane (i.e. the area under the current response curve) induced by agonist application were measured using Clampfit (pClamp Suite) and normalized to the maximal response induced by ACh (3 mM ACh for peak current amplitude and 300 μM ACh for net charge).

L-type calcium channel = assay: Selectivity panel, functional; assay type: cell-based; details: Human
[2] = tested on: S(+)ketamine treated rats; assay: Rat S(+)ketamine N40 gating
5-HT1B = assay: Selectivity panel, binding; details: read-out: % inhibition @ 10 µM, Rat
[3] = molecular target: T3, HEK293/rat α7 nAChR cells (Rattus norvegicus, UniProt Q05941); assay: Whole cell voltage clamp electrophysiology; assay type: cell-based; details: for Net Charge (Current Area) normalized to 300 µM ACh / Peak Current normalized to 3 mM ACh: individual cells; for mean ± SEM peak current Ymax: n = 5
T3 construct: expressed in transfected cells
Method: as §1

Muscarinic M1 = Muscarinic M1 (Homo sapiens, UniProt P11229); assay: Selectivity panel, binding; details: read-out: % inhibition @ 10 µM
HEK293/Human α7 nAChR = HEK293/Human α7 nAChR (Homo sapiens, UniProt P36544); assay: [3H]-A-585539 filtration binding; set-up: expressed in transfected cells
Nav1.5 = Nav1.5 (Homo sapiens, UniProt Q14524); assay: Selectivity panel, functional; assay type: cell-based
rat α4β2 nAChR = molecular target: T4, rat α4β2 nAChR (Rattus norvegicus, UniProt P09483+P12390); assay: Ca2+ flux (FLIPR) agonist/antagonist assay; assay type: cell-based; details: FLIPR antagonist mode, EC90 ACh
T4 construct: expressed in transfected cells; host or cells: HEK293 (made by Bristol-Myers Squibb)

MAO-B = MAO-B (Homo sapiens, UniProt P27338); assay: Selectivity panel, enzyme; assay type: biochemical
Dopamine D1 = Dopamine D1 (Homo sapiens, UniProt P21728); assay: Selectivity panel, binding
Glucocorticoid receptor = Glucocorticoid receptor (Homo sapiens, UniProt P04150); assay: Selectivity panel, binding
HEK293/Human 5-HT3A = molecular target: T5, HEK293/Human 5-HT3A (Homo sapiens, UniProt P46098); assay: Ca2+ flux (FLIPR) 5-HT3A antagonist assay; assay type: cell-based
T5 construct: expressed in transfected cells; host or cells: HEK293 (made by Bristol-Myers Squibb)
T5 sequence (P46098 24-478): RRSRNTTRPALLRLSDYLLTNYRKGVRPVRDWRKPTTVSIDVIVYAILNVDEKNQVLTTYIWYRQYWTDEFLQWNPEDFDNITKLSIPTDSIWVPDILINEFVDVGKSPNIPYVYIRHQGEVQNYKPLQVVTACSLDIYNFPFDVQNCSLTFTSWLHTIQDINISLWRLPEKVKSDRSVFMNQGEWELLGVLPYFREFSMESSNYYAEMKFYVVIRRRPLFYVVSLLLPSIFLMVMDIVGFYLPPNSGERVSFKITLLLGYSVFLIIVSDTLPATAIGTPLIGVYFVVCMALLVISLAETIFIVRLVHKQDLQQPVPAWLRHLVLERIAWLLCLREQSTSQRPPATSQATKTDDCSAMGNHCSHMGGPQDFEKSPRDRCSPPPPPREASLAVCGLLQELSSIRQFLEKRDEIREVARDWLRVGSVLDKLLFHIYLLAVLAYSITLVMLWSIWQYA
Method: Functional activity was examined using Ca^2+-sensitive, dye-based, microfluorometric assays read on the FLIPR Tetra plate reader platform (Molecular Devices, CA, USA). Cells were plated in 384-well black, clear-bottomed Greiner poly-D-lysine coated plates at a density of ~25 K cells/well and incubated at 29°C for 48 h. Prior to assay, media contents were removed and cells incubated in assay buffer containing 5μM final Fluo-4 dye for 90 min. For nAChR assays, the dye-loading buffer was HBSS (#14175 Life Technologies) supplemented with 20 mM HEPES, 0.5 mM CaCl2, 1 mM MgCl2 and 10 μM atropine (final concentration). Test compounds were solubilized in DMSO and serially diluted in NUNC 384-well plates prior to addition of assay buffer (5.3 mM KCl + 140 mM NaCl + 20 mM Hepes + 25 mM CaCl2 + 1 mM MgCl2 + 10 μM atropine final concentration). Compounds diluted in assay buffer were added to the assay plate by the FLIPR and read for approximately 2 min. […] For 5-HT3A antagonist studies, the dye loading and compound diluent buffer was HBSS (#14025 Life Technologies) supplemented with 20 mM HEPES (final concentration) and the concentration of 5-HT used in the assay was 2 μM. Offline transformation of concentration response data was done using a 4 parameter logistic fit using a Bristol-Myers Squibb proprietary informatics software suite.

T2 sequence (P36544 23-502): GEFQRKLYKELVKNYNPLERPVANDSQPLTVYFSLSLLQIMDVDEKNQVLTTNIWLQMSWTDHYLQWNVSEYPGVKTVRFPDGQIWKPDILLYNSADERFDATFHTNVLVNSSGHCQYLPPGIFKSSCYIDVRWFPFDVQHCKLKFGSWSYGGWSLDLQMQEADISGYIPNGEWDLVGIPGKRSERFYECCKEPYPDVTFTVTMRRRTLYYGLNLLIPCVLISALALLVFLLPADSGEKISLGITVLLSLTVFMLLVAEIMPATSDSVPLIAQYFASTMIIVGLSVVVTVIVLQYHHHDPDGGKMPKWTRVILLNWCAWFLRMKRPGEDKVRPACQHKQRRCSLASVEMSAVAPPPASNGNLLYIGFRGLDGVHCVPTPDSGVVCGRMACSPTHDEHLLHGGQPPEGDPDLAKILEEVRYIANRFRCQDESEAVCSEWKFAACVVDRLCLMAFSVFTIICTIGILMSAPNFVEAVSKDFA
Chain of HEK293/Human α7 nAChR (P36544 23-502): as above
T3 sequence (Q05941 23-502): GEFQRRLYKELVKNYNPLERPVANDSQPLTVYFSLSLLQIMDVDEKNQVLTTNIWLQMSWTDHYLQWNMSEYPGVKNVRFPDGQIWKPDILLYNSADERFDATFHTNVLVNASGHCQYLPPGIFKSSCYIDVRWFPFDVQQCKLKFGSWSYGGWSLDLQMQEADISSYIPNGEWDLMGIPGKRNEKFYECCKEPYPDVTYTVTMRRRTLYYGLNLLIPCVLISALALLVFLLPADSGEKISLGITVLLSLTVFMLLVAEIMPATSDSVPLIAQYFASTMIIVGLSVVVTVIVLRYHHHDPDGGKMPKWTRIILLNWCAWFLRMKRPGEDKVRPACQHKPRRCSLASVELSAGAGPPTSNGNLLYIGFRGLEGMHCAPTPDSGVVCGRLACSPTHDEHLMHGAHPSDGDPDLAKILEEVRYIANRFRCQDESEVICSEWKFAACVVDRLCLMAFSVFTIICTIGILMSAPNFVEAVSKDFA
T1 sequence (Q05941 23-502): as above
Chain of Dopamine D1 (P21728 whole entry): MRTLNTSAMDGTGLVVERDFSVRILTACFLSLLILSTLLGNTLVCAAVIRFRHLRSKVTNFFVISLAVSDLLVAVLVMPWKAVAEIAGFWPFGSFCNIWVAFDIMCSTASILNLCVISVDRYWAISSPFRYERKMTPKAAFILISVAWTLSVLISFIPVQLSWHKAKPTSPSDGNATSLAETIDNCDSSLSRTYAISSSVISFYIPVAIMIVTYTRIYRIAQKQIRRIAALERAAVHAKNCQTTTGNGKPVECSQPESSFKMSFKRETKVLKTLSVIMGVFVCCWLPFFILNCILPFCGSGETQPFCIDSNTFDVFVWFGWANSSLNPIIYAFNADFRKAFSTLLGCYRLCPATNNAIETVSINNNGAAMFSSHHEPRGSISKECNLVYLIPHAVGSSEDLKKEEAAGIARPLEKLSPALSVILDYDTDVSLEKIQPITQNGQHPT
Chain of MAO-A (P21397 whole entry): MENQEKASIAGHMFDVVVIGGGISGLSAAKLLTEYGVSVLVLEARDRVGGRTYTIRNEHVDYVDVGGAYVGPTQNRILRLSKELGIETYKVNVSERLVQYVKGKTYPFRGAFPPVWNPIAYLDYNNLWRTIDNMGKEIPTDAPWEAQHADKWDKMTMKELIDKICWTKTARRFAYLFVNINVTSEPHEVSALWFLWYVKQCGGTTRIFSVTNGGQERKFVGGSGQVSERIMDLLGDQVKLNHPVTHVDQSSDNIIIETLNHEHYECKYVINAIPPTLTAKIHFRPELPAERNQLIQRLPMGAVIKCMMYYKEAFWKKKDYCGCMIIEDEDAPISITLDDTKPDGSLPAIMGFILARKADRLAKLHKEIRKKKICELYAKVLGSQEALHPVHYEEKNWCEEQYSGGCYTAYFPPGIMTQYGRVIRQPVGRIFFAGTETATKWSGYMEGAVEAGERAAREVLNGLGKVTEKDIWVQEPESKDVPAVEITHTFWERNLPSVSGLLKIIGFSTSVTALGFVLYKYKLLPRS
Chain of Nav1.5 (Q14524 whole entry): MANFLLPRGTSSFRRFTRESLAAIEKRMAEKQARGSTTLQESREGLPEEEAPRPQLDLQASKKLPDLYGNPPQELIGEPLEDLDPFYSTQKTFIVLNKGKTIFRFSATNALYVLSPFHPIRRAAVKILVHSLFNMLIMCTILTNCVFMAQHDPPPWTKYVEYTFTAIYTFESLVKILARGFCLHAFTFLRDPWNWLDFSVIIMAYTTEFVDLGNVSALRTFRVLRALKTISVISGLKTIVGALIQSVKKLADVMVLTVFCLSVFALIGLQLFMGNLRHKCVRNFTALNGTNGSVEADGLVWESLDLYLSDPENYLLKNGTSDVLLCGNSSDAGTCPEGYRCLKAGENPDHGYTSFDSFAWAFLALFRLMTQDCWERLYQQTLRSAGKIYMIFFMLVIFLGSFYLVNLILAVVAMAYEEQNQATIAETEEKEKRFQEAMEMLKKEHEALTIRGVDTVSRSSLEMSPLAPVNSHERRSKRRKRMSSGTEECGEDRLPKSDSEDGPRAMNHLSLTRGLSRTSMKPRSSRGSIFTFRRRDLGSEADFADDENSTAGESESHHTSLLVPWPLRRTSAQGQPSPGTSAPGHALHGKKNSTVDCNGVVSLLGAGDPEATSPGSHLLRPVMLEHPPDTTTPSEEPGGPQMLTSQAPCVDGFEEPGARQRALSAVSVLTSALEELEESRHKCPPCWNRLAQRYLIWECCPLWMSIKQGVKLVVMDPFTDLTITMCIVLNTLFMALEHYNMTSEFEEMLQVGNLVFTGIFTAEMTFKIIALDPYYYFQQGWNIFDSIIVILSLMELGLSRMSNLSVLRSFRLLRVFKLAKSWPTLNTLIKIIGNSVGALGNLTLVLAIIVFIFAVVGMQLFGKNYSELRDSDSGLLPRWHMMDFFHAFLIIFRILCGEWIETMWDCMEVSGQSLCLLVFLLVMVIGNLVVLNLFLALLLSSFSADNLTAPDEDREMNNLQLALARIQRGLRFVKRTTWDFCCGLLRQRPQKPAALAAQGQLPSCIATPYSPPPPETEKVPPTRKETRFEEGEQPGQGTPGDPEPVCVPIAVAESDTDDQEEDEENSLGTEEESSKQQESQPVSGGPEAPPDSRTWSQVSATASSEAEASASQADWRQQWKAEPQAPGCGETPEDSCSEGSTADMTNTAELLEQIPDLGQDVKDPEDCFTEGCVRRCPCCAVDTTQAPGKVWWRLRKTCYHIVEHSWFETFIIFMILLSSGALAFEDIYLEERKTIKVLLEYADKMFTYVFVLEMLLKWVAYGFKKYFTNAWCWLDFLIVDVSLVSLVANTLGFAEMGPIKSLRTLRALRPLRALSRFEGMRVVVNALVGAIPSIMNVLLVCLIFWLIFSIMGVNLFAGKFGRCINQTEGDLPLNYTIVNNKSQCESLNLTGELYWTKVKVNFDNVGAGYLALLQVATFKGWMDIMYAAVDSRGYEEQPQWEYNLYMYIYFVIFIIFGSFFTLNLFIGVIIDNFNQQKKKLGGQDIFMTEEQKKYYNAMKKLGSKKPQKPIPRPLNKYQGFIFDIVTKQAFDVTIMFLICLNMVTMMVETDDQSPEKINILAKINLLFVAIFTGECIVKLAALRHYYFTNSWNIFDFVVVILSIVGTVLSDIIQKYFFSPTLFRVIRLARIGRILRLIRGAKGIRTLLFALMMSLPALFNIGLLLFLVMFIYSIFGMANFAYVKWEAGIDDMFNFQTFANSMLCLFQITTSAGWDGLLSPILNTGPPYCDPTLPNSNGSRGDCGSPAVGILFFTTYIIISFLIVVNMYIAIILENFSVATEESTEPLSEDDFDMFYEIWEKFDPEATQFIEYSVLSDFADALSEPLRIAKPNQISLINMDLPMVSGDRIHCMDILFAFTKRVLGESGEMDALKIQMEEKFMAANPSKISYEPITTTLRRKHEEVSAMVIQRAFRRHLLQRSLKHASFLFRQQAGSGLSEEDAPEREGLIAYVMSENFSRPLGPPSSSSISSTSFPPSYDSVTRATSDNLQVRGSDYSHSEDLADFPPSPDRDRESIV
Chain of MAO-B (P27338 whole entry): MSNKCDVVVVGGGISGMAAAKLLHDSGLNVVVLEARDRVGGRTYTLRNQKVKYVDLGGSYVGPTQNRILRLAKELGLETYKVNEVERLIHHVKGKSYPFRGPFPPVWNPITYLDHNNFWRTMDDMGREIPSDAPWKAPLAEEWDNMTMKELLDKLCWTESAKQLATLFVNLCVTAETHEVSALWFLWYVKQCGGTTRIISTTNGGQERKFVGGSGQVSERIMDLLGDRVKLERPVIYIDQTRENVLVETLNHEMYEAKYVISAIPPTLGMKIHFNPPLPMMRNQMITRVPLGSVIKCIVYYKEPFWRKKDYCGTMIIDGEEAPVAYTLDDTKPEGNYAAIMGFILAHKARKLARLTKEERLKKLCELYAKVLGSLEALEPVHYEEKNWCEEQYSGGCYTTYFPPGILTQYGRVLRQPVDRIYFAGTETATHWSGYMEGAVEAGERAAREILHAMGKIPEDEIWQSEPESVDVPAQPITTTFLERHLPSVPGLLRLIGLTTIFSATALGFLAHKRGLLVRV
Chain of Dopamine D2 (P14416 whole entry): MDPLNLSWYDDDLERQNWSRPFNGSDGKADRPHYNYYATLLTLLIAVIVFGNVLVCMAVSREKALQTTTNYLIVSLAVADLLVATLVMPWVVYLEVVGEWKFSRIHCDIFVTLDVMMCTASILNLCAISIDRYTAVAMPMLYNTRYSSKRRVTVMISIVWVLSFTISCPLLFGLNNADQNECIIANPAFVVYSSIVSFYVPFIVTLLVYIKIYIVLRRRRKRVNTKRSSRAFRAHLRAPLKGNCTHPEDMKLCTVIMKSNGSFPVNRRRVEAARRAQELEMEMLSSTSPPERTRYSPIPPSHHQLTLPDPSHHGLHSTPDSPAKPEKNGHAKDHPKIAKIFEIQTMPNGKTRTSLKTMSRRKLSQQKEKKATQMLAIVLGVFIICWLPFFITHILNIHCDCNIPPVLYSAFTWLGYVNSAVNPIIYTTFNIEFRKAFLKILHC

For `c1cn(-c2cc(NC3=NC[C@@]4(CN5CCC4CC5)O3)ncn2)cn1` [BMS-933043, (2R)-N-(6-(1H-imidazol-1-yl)-4-pyrimidinyl)-4'H-spiro[4-azabicyclo[2.2.2]octane-2,5'-[1,3]oxazol]-2'-amine], the IC50 (Dopamine D2) was greater than 30 µM, the “% ex vivo α7 nAChR occupancy” value (α7 nAChR; 3 mg/kg po, 90 min, individual rats) was 65% and 63% and 62% and 28% and the “% ex vivo α7 nAChR occupancy” value (α7 nAChR; 10 mg/kg po, 90 min) was 83% and 78% and 77% and > 75%. The “% ex vivo α7 nAChR occupancy” value (α7 nAChR; 30 mg/kg po, 90 min, individual rats) was 82% and 90% and 67% and 69%, the receptor occupancy at 10 mg/kg (α7 nAChR; po, 10 mg/kg po, 90 min, read-out: % ex vivo α7 nAChR occupancy) was 80% and the receptor occupancy at 10 mg/kg (α7 nAChR; rats, 10 mg/kg sc to 30 mg/kg po, read-out: ex vivo α7 nAChR occupancy at doses associated with a loss of efficacy) was no less than 80%. The EC50 (α7 nAChR; rats, read-out: total plasma concentration achieving 50% ex vivo α7 nAChR occupancy) was 0.81 µM, the IC50 (MAO-A) was greater than 30 µM and the IC50 (NMDA NR1/2A) was greater than 30 µM. The EC50 [1] was 0.29 ± 0.01 µM, the “Net Charge (Current Area) normalized to 300 µM ACh” value ([1]; 0.1 µM) was 0.01982 and 0.01318 and 0.03866 and 0.03782 and 0.02283 and 0.01327 and 0.03856 and the “Peak Current normalized to 3 mM ACh” value ([1]; 0.1 µM) was 0.005961 and 0.006675 and 0.008382 and 0.007317 and 0.006875 and 0.005721 and 0.00606. The “Net Charge (Current Area) normalized to 300 µM ACh” value ([1]; 0.3 µM) was 0.3496 and 0.3624 and 0.3212 and 0.3215 and 0.2954 and 0.3576 and 0.4143, the “Peak Current normalized to 3 mM ACh” value ([1]; 0.3 µM) was 0.02637 and 0.02303 and 0.02389 and 0.02438 and 0.0295 and 0.03259 and 0.02737 and the “Net Charge (Current Area) normalized to 300 µM ACh” value ([1]; 1 µM) was 0.6952 and 0.6304 and 0.6554 and 0.6122 and 0.619 and 0.6592 and 0.8129. For the same molecule, the “Peak Current normalized to 3 mM ACh” value ([1]; 1 µM) was 0.05479 and 0.03294 and 0.04392 and 0.05131 and 0.08504 and 0.08024 and 0.07272, the “Net Charge (Current Area) normalized to 300 µM ACh” value ([1]; 3 µM) was 0.7025 and 0.6903 and 0.6991 and 0.888 and 0.7947 and 0.7791 and 0.7655 and the “Peak Current normalized to 3 mM ACh” value ([1]; 3 µM) was 0.126 and 0.0997 and 0.1092 and 0.09913 and 0.1966 and 0.202 and 0.183. For the same molecule, the “Net Charge (Current Area) normalized to 300 µM ACh” value ([1]; 10 µM) was 0.8035 and 0.7537 and 0.7969 and 0.7637 and 0.7224 and 0.6788 and 0.8823, the “Peak Current normalized to 3 mM ACh” value ([1]; 10 µM) was 0.217 and 0.1532 and 0.1702 and 0.1779 and 0.3334 and 0.2987 and 0.3004 and the “Mean ± SEM Net Charge Ymax” value ([1]; Human, normalized to 300 μM ACh) was 0.78 ± 0.004. For the same molecule, the “Mean ± SEM Peak Current Ymaxobs @ 10 μM” value ([1]; Human, normalized to 3 mM ACh) was 0.24 ± 0.03, the IC50 (L-type calcium channel) was greater than 25 µM and the “deficit in N40 gating following S(+)ketamine” value ([2]; 0.3 and 10 mg/kg sc) was “neither the lowest dose (0.3 mg/kg; data not shown) nor the highest dose (10 mg/kg) tested were significantly different”. For the same molecule, the “deficit in N40 gating following S(+)ketamine” value ([2]; 0.56, 1 and 3 mg/kg sc) was “significant reduction”, the “Active dose range, S(+)Ketamine N40 gating” value ([2]; sc) was 0.56–3.0 (sc) mg/kg and the inhibition at 10 µM (5-HT1B) was 0%. For the same molecule, the EC50 [3] was 0.14 ± 0.03 µM, the “Net Charge (Current Area) normalized to 300 µM ACh” value ([3]; 0.1 µM) was 0.00864 and -0.014 and 0.05917 and 0.0877 and the “Peak Current normalized to 3 mM ACh” value ([3]; 0.1 µM) was 0.01158 and 0.01083 and 0.01236 and 0.0131. The “Net Charge (Current Area) normalized to 300 µM ACh” value ([3]; 0.3 µM) was 0.4138 and 0.2853 and 0.4739 and 0.5256, the “Peak Current normalized to 3 mM ACh” value ([3]; 0.3 µM) was 0.04784 and 0.02829 and 0.03284 and 0.03669 and the “Net Charge (Current Area) normalized to 300 µM ACh” value ([3]; 1 µM) was 0.7172 and 0.3555 and 0.6626 and 0.6549. For the same molecule, the “Peak Current normalized to 3 mM ACh” value ([3]; 1 µM) was 0.07111 and 0.07356 and 0.0749 and 0.08082, the “Net Charge (Current Area) normalized to 300 µM ACh” value ([3]; 3 µM) was 0.7919 and 0.4794 and 0.6677 and 0.6569 and the “Peak Current normalized to 3 mM ACh” value ([3]; 3 µM) was 0.1558 and 0.1519 and 0.1651 and 0.1365. The “Net Charge (Current Area) normalized to 300 µM ACh” value ([3]; 10 µM) was 0.8266 and 0.4637 and 0.7322 and 0.6673, the “Peak Current normalized to 3 mM ACh” value ([3]; 10 µM) was 0.2731 and 0.2904 and 0.2952 and 0.2153 and the “mean ± SEM peak current Ymax” value ([3]; BMS-933043 10 μM alone) was 0.26 ± 0.03. The “mean ± SEM peak current Ymax” value ([3]; BMS-933043 10 μM in the presence of 10 nM MLA) was 0.02 ± 0.003, the “Mean ± SEM Net Charge Ymax” value ([3]; Rat, normalized to 300 μM ACh) was 0.67 ± 0.07 and the “Mean ± SEM Peak Current Ymaxobs @ 10 μM” value ([3]; Rat, normalized to 3 mM ACh) was 0.27 ± 0.02. For the same molecule, the inhibition at 10 µM (Muscarinic M1) was 11%, the Ki (HEK293/Human α7 nAChR; HEK293/Human α7 nAChR Mean ± SD Ki) was 0.008 µM and the Ki (HEK293/Human α7 nAChR; HEK293/human α7 nAChR Ki (individual)) was 0.0105 µM and 0.0057 µM. For the same molecule, the Ki (HEK293/Human α7 nAChR; read-out: HEK293/Human α7 nAChR Mean ± SD Ki) was 0.0081 µM, the Ki (HEK293/Human α7 nAChR; read-out: HEK293/human α7 nAChR Ki (individual)) was 0.0081 µM and the IC50 (Nav1.5) was greater than 30 µM. It also gave an IC50 (rat α4β2 nAChR) greater than 30 µM, an IC50 (MAO-B) greater than 30 µM and an IC50 (Dopamine D1) greater than 30 µM. For the same molecule, the IC50 (Glucocorticoid receptor) was greater than 150 µM, the IC50 (HEK293/Human 5-HT3A; HEK293/Human 5-HT3A Mean ± SD IC50, Ca2+ flux (FLIPR), antagonism of 2 μM 5-HT) was 8.07 µM and the IC50 (HEK293/Human 5-HT3A; Human 5-HT3A IC50 values (individual), FLIPR, individual determinations) was 10.5 µM and 7.2 µM and 8.02 µM and 6.88 µM and 7.28 µM and 4.89 µM and 12.4 µM and 5.32 µM and 8.67 µM and 9.42 µM.
